Experimental data from ChEMBL document CHEMBL3232845 (Bioorg Med Chem Lett, 2014).

How the values were obtained:
[1] = molecular target: T1, Serine/threonine-protein kinase B-raf (Homo sapiens, UniProt P15056, V600E); test: Inhibition of full-length B-Raf V600E mutant (unknown origin)
[2] = molecular target: T1, Serine/threonine-protein kinase B-raf; test: Inhibition of B-Raf V600E mutant in human Malme-3M cells assessed as basal ERK phosphorylation; type: cell-based
[3] = Apparent permeability of the compound from apical to basolateral direction in pig LLC-PK1 cells; type: ADME, cell-based, Sus scrofa
[4] = Clearance in mouse at 2.5 mg/kg, iv; type: ADME, organism-based; design: dose 2.5 mg/kg, route intravenous; conditions: in vivo
[5] = Volume of distribution in mouse; type: ADME, organism-based; conditions: in vivo
[6] = AUC in mouse at 30 mg/kg, po; type: ADME, organism-based; design: dose 30 mg/kg, route oral; conditions: plasma
[7] = Oral bioavailability in mouse at 30 mg/kg; type: ADME, organism-based; conditions: in vivo

T1 sequence (P15056 2-766 V600E limits assumed): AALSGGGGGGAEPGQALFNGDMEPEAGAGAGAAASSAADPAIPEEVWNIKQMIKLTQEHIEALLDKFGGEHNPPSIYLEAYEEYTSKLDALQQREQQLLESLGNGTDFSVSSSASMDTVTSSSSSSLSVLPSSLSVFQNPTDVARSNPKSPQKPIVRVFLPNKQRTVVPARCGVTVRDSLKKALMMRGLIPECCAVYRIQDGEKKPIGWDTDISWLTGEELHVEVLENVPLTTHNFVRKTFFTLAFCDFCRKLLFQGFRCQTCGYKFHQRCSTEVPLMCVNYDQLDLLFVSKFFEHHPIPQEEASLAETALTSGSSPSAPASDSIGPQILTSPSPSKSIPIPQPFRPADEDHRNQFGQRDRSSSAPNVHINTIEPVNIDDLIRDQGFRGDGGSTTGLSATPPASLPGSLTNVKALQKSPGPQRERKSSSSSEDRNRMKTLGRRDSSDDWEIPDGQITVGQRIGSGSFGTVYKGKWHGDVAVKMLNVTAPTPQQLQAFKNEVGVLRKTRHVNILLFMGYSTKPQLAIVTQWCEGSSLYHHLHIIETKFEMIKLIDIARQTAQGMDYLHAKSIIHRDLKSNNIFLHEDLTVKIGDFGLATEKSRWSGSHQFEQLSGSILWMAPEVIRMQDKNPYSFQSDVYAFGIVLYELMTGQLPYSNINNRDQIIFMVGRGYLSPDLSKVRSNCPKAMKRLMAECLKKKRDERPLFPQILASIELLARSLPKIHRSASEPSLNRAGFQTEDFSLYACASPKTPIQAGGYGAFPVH

SMILES	IC50 [1]	IC50 [2]	also measured
CCCS(=O)(=O)Nc1ccc(Cl)c(Nc2ccc3ncn(C)c(=O)c3c2)c1C#N	0.2 nM	16 nM	–
CCCS(=O)(=O)Nc1ccc(F)c(Nc2ccc3ncn(C)c(=O)c3c2)c1F	19 nM	55 nM	–
CCCS(=O)(=O)Nc1ccc(F)c(Nc2ccc3ncnc(OC)c3c2)c1Cl	16 nM	733 nM	–
CCCS(=O)(=O)Nc1ccc(F)c(N(C)c2ccc3ncn(C)c(=O)c3c2)c1Cl	8 nM	114 nM	–
CCCS(=O)(=O)Nc1ccc(Cl)c(Nc2ccc3ncn(C)c(=O)c3c2)c1F	12 nM	116 nM	–
CCCS(=O)(=O)Nc1ccc(F)c(Nc2ccc3nccnc3c2)c1Cl	25 nM	814 nM	–
CCCS(=O)(=O)Nc1ccc(F)c(Oc2ccc3ncn(C)c(=O)c3c2)c1C#N	0.2 nM	3 nM	–
CCCS(=O)(=O)Nc1ccc(F)c(Nc2ccc3ncncc3c2)c1F	33 nM	118 nM	–
CCCS(=O)(=O)Nc1ccc(C)c(Nc2ccc3ncn(C)c(=O)c3c2)c1	851 nM	–	–
CCCS(=O)(=O)Nc1ccc(F)c(Nc2ccc3ncccc3c2)c1F	314 nM	6250 nM	–
CCCS(=O)(=O)Nc1cccc(Oc2ccc3ncn(C)c(=O)c3c2)c1C#N	0.3 nM	7 nM	–
CCCS(=O)(=O)Nc1ccc(F)c(Nc2ccc3ncnc(NC)c3c2)c1Cl	11 nM	132 nM	–
CCCS(=O)(=O)Nc1ccc(F)c(N(CC)c2ccc3ncn(C)c(=O)c3c2)c1F	26 nM	110 nM	–
CCCS(=O)(=O)Nc1ccc(F)c(N(C)c2ccc3ncn(C)c(=O)c3c2)c1F	11 nM	62 nM	–
CCCS(=O)(=O)Nc1ccc(F)c(Nc2ccc3ncn(-c4cnn(C)c4)c(=O)c3c2)c1Cl	2 nM	18 nM	–
CCCS(=O)(=O)Nc1ccc(F)c(Nc2ccc3ncncc3c2)c1Cl	4 nM	44 nM	–
CCCS(=O)(=O)Nc1ccc(Cl)c(Oc2ccc3ncn(C)c(=O)c3c2)c1C#N	0.2 nM	15 nM	–
CCCS(=O)(=O)Nc1ccc(F)c(Nc2ccc3ncn(C)c(=O)c3c2)c1Cl	2 nM	26 nM	Papp A→B [3]: > 8 ×10⁻⁶ cm/s; clearance [4]: 4.7 mL/min/kg; Vd [5]: 0.49 L/kg; AUC [6]: 282 µM·h; bioavailability [7]: 112%
CCCS(=O)(=O)Nc1ccc(F)c(Nc2ccc3ncn(Cc4ccccc4)c(=O)c3c2)c1Cl	17 nM	581 nM	–
CCCS(=O)(=O)Nc1ccc(F)c(N(CC)c2ccc3ncn(C)c(=O)c3c2)c1Cl	30 nM	603 nM	–
CCCS(=O)(=O)Nc1ccc(Cl)c(N(C)c2ccc3ncn(C)c(=O)c3c2)c1F	3 nM	84 nM	–
CCCS(=O)(=O)Nc1ccc(F)c(Nc2ccc3ncnc(N(C)C)c3c2)c1Cl	100 nM	878 nM	–
